Data on one sequence can be found in patent US8741843B2, “Compositions and methods for inducing angiogenesis” (priority 2006, dated 2014).

Entries after “also recorded” stand apart in the source; their conditions may differ.

Assay [1] has as its system endothelial cells (HUVEC). Put plainly: Proliferation of endothelial cells under hypoxia ([H3]Thymidine incorporation). The class given is cell-based, human. As to conditions: 24 hours starvation, 10 ng/ml. As to the method: FIG. 5 is a graph depicting cell proliferation as a function of ADOPeps' concentration. Proliferation of endothelial cells (EC) under hypoxia conditions was measured by [H^3]Thymidine incorporation. Endothelial cells (12,000/well) in minimal growth medium were incubated for 24 hours in the presence of 1, 10 and 100 ng/ml of ADOPep1 (SEQ ID NO:2; red diamonds), 2 (SEQ ID NO:3; blue squares) and 3 (SEQ ID NO:4; green triangles) peptides.
HUVEC from passage 3 were used for proliferation experiments. Endothelial cells (15,000 cells/well) were seeded on 24-wells in the presence of endothelial cell growth medium (Promocell, Heidelberg, Germany) with supplements and incubated for 24 hours. After then, cells were exposed to 24 hours starvation in a medium free of supplements. ADOPeps were added at concentrations of 1, 10 and 100 ng/ml for 24 hours under hypoxic conditions. 2 μCi/well of Thymidine (SIGMA, Rehovot Israel) were added or over night incubation followed by 3 washes with PBS before harvesting at 37° C. with 300 μl/well of 0.5 M NaOH. Cell lysates were transferred to scintillation vials with 2 ml scintillation liquid Ultima Gold (Packard Bioscience, Meriden, USA) and counted in a β counter. Results were obtained as counts per minute (cpm).
For orientation: Uptake of a labelled nucleoside into DNA is a usual measure of proliferation.

The test system of assay [2] is mouse ischemic hind limb. Put plainly: Mouse hind-limb ischemia model, laser Doppler blood perfusion. Type of assay: in vivo. As to conditions: 0.1 microgram/mouse i.m., day 21 after surgery, vs PBS. As to the method:
A mouse hind limb model was created by excision of femoral artery of C57B1 mouse hind limb, the non-operated limb served as a control. ADOPep1 (SEQ ID NO:2; red symbols) and 3 (SEQ ID NO:4; green symbols) were injected intra-muscularly one day after surgery at 0.1 (squares) and 1 (circles) micrograms/mouse. Injection of PBS (black diamond) was used as a control. Blood flow was measured using a laser Doppler immediately (T0) or at 7 (T7), 14 (T14) and 21 (T21) days after surgery. The average perfusion of each limb was determined and the perfusion ratio [expressed as Relative Perfusion (ischemic left/control right leg)] was plotted against time.
A mouse hind limb ischemia model was used. Ischemia was created in the C57B1 strain mouse by ligation and excision of the femoral artery on the left hind limb. The right hind limb served as a control. A day after the operation ADOPep1 and 3 were injected intramuscular at a site close to the operation. […] The blood perfusion was measured using a Laser Doppler Blood perfusion analyzer (Perimed, Sweden) one day post operation and 7, 14, 21 days post operation. The average perfusion of each limb was computed and percent perfusion ratio was expressed as the ischemic (left)/control (right) percent perfusion ratio.

For assay [3], the system named is GRP78 receptor on endothelial cells. Put plainly: Competitive binding of ADOPeps to GRP78 (anti-GRP78 antibody ELISA on endothelial cells). More on the design: species or system human. Particulars: summary of 4 experiments. Here is the method: FIG. 19 is a graph depicting inhibition of binding (in percentages) of anti-GRP78 antibody to endothelial cells by increasing concentrations of ADOPep1, 2, and 3 peptides. Endothelial cells were incubated for 2 hours with increasing concentrations of ADOPeps, following which the cells were incubated for another 1 hour with the 2 μg/ml of anti-GRP78 antibody and the amount of bound antibody on EC was detected using an ELISA reader.
Endothelial cells (20,000 per well) were seeded in 96 well plates for 24 hours in the presence of the complete medium. Plates were washed with PBS over night and rehydrated with PBS, 0.1% Na Azide and 5% FCS. ADOPep1, ADOPep2 and ADOPep3 were added to washed plates for 2 hours at room temperature at concentrations of 0.01, 0.1 and 1 microgram per ml. Anti-GRP78 antibody (goat polyclona IgG, Santa Cruz Biotechnology, Calif., USA) was added to the plates for 1 hour at room temperature at a concentration of 2 micrograms/ml per well. After washing, bound anti-GRP78 antibody was detected by incubation with anti-goat IgG Peroxidase conjugated (Jackson Immuneresearch Laboratories, PA, USA). After 5 washes with PBS-0.1% Tween 20, 100 μl/well of TMB+ Substrate-Chromogen (DAKOCytomation, CA, USA) was added for a maximum of 30 minutes. Reaction was stopped with 1N HCl. Color developed was determined by an ELISA reader at 450 nm.
For orientation: In an ELISA, binding on a coated surface is turned into a signal by an enzyme label.

The test system of assay [4] is GRP78 in mouse ischemic hind limb. Put plainly: GRP78-positive cells in ischemic hind limb sections. Particulars: 1 μg/mice, 7 to 14 days post ligation, vs PBS. The class given is in vivo. Here is the method: FIG. 21 is a bar graph depicting the mean number of GRP78-positive (GRP78+) cells per area in hind limb ischemia treated with ADOPep1 as a function of the days post induction of ischemia. Mice were subjected to hind limb ligation (the ischemic model) and after one day the mice were injected with either 1 μg/mice of ADOPep1, or 50 μl of PBS as control. The number of GRP78 positive cells was determined in histological sections prepared from ligated hind limbs (injected with ADOPep1 or PBS) of mice sacrificed at 7, 14 or 21 days post ischemia induction or normal untreated (non-ischemic) hind limbs.

Assay [5] relates to mouse ischemic hind limb. Put plainly: Apoptotic cells in ischemic hind limb sections. As to conditions: 1 μg/mice, 7 days post ligation, vs PBS. The class given is in vivo. As to the method:
FIG. 22 is a bar graph depicting the number of apoptotic cells per field in ischemic hind limb treated with ADOPep1 as a function of days after ischemia induction. Mice were subjected to hind limb ligation and PBS or ADOpep1 injection as described in the description of FIG. 21, hereinabove, and the number of apoptotic cells per microscopical filed was determined in histological sections prepared from either ligated and ADopep or PBS treated hind limbs of mice sacrificed at 7, 14 or 21 days post ischemia induction or from normal non-ischemic hind limbs.

Assay [6] concerns the target GRP78 (Homo sapiens, UniProt P11021). Put plainly: GRP78 receptor internalization in endothelial cells under hypoxia. More on the design: endogenous in cells; host or cells: HUVEC / endothelial cells from umbilical cords, under normoxia or hypoxia. Type of assay: cell-based. As to conditions: 10 ng/ml, after 5 minutes of incubation. Here is the method:
FIG. 29 is a graph depicting GRP78 receptor internalization response to ADOPep1 binding under hypoxic conditions. Endothelial cells were incubated under starvation conditions and hypoxia over night. Cells were incubated with 10 ng/ml ADoPep1 for 5, 15, 30 and 60 minutes. For membrane staining biotinylated AdoePep1 at 5 micrograms was added to intact cells for 1 hour and replaced by streptavidin FITC. For intracellular staining, cells were fixed with 1% paraformaldehyde followed by 15 minutes incubation with 0.1% saponin. After washing of cells, biotinylated AdoPep was added to the cells. The samples were analyzed with a FACScan (Beckton Dickinson). Membrane staining is shown by the blue bars (results are expressed in percentages, as normalized to untreated cells); Mean intracellular staining is shown by the purple bars (results are expressed in mean fluorescence);

Sequence of GRP78 (P11021 19-654): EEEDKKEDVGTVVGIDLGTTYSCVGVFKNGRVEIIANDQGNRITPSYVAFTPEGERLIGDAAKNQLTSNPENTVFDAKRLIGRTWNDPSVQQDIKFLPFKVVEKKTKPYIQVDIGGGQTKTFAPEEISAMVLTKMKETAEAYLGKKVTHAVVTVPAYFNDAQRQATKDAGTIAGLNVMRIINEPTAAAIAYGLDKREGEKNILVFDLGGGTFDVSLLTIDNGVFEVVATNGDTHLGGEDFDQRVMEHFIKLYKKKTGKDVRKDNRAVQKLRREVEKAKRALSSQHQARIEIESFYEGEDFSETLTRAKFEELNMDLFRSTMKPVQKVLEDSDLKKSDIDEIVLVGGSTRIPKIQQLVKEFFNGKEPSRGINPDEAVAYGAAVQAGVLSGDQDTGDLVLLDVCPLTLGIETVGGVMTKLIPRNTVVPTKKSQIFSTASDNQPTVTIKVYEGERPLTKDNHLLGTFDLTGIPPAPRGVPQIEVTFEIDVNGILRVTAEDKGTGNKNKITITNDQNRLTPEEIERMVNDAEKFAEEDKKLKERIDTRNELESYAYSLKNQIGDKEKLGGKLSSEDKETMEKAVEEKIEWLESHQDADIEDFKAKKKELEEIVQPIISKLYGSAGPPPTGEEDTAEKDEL

In the case of “HWRRAHLLPRLP [ADOPep1, ADAM15 derived peptide, amino acids 286-297 of the metalloprotease domain]”, the “proliferation of endothelial cells” value in assay [1] is “capable of inducing proliferation of EC”; in assay [1] (listed as ADOpep1), “induced proliferation of endothelial cells”. Moreover, the “blood perfusion ratio (ischemic left/control right)” value in assay [2] is given as “significant increase in the blood perfusion ratio; also recorded: significant increase in blood perfusion (p<0.05)”. The “inhibition of binding of anti-GRP78 antibody to EC (in words)” value in assay [3] was “some degree of inhibition”. For the same sequence, the results for the “mean number of GRP78 positive cells” value in assay [4] and in assay [4] (listed as Adopep1) were “significantly increased” and “more significant increase in mean number of GRP78 positive cells”, respectively. In addition, the figures for the “number of apoptotic cells per field” value in assay [5] and in assay [5] (listed as ADoPep1) were “significant decrease” and “dramatically decreased”, respectively. Also, in assay [6], the GRP78 receptor internalization entry is recorded as “induced GRP78 receptor internalization”.
